We go through 3 compounds from patent publication US9040715B2 (priority 2008, dated 2015).

Like-named read-outs stand apart in the source and are kept apart here.

Assay type in all cases: cell-based
The subject of one series is HCV replication. The series is described as follows: Effect of combination treatments on HCV replication (CalcuSyn analysis). Details: key to Type of Interaction: S, synergistic. The following applies: for EC50 / EC90: Hepatitis C virus; for EC50: read-out: Compound I-9 EC50; for EC90: read-out: Compound I-9 EC90. From the text: Compound I-9 was utilized in combination treatments with interferon (with and without RBV), and several representative STAT—C agents including 2′CmeC (nucleoside analogue), HCV-796 (non-nucleoside polymerase inhibitor), and VX-950 (protease inhibitor) (Table 13). For these studies, the compounds were mixed at equipotent (not necessarily equimolar) concentrations based on the monotherapy EC90 values. For example, 2′CmeC and Compound I-9 were mixed at equal molar concentrations, while 10-fold more Compound I-9 was used relative to VX-950 in that combination. The mixtures were then serially diluted for dose response analysis keeping the molar ratios constant. Corresponding monotherapies were also included. # Ribavirin (RBV) was held at a constant concentration of 30 uM for all serial dilutions of this combination. The overall type of interaction as determined by analysis with CalcuSyn (Biosoft, Inc.; Cambridge, UK) for each combination is indicated next to the corresponding EC50 and EC90 values in Table 13.
Analysis of combination therapies was performed using Calcusyn™ software (Biosoft, Inc.; Cambridge, UK). Two types of evaluations were performed (see FIG. 7). The top panels of FIG. 5 present CI-Fa (Combination Index—Fraction (of virus) affected) plots). For these plots, a combination index [CI] greater than 1.0 indicates antagonism and a CI less than 1.0 indicates synergism. Evaluations of synergy, additivity (summation), or antagonism at different levels of virus inhibition (e.g. […] (Fa=0.5) to 99% (Fa=0.99)) were performed and are provided by the plotted lines and points. Dotted lines denoting 1.96 standard deviations for significance evaluations can be added but are not included in this example for clarity of presentation. The bottom panels present conservative isobolograms. […] Three lines radiating out from the axes denote the expected (e.g., additive) EDC50, EDC75, and EDC90 values for drug combinations as calculated from the monotherapies. ED50, ED75, and ED90 values for the combinations that plot to the left (e.g., less than) of the corresponding lines indicate synergy, and values plotting to the right (e.g., greater than) of the corresponding lines indicate antagonism.

Series [1] concerns HCV replicon cell line AVA5 (sub-genomic CONI, genotype 1b). The series is described as follows: Anti-HCV activity, 3-day HCV replicon assay, blot hybridization of intracellular HCV RNA. The following applies: for EC50: 2-fold depression of intracellular HCV RNA. How it is done:
(§1) The antiviral activity of Compounds I-8 and I-9 was assessed in a 3-day assay using the stably-expressing HCV replicon cell lines, AVA5 (sub-genomic CONI, genotype 1b) and APC103 (genomic H77, genotype la) maintained as sub -confluent cultures on 96-well plates. Antiviral activity was determined by blot hybridization analysis of intracellular HCV RNA (normalized to the level of cellular B-actin RNA in each culture sample). A 3-fold suppression of HCV RNA and less than 2-fold suppression of cellular B-actin RNA was used as the cutoff. Cytotoxicity was assessed by neutral red dye uptake after 3 days of treatment. Dose response inhibition of HCV was also determined (FIG. 6). The nucleoside analogue 2′C-methyl cytidine (2′CmeC) was used as an assay activity control. EC50, EC90 and CC50 values (+/− standard deviations [S.D.]) were calculated by linear regression analysis. EC50 and EC90 are drug concentrations at which a 2-fold, or a 10-fold depression of intracellular HBV DNA or HCV RNA (relative to the average levels in untreated cultures), respectively, was observed. CC50 is the drug concentration at which a 2-fold lower level of neutral red dye uptake (relative to the average levels in untreated cultures) was observed.
In general terms: A replicon is a self-replicating genome or part of one, used to study replication in cells.

In series [2] the test system is HCV replicon cell line APC103 (genomic H77, genotype la). The description is as above. The conditions noted are these: for EC50: read-out: EC50 (μM ± SD); for EC90: 10-fold depression of intracellular HCV RNA. How it is done: as §1
The nature of series [3]: Cytotoxicity by neutral red dye uptake after 3 days of treatment. The conditions noted are these: human. How it is done:
as §1

A further series concerns APC103 cells. Described as above. How it is done: as §1
The subject of a further series is AVA5 cells. The description is as above. How it is done: as §1
[4] abbreviates: combination with 2′CmeC, molar ratio 1:1.
The mark [5] stands for this setting: combination with HCV-796, molar ratio 1:100.
[6] abbreviates: combination with IFN + 30 μM RBV (RBV held constant), molar ratio 1:1.
[7] abbreviates: combination with IFN, molar ratio 1:1.
Where [8] appears, read: combination with VX-950, molar ratio 1:10.
[9] abbreviates: Hepatitis C virus, Ava5, read-out: EC90 (μM ± SD).

As usually defined, the EC50 is the concentration at which the effect is half-maximal. By EC90 is commonly meant the concentration at which the effect reaches the 90% level. In general, CC50 refers to the concentration at which the toxic effect on the cells reaches its halfway point. Take `CC(C(=O)Nc1cccc(Oc2ccccc2)c1)n1sc2ccccc2c1=O` (stereo not drawn) [Compound I-9]: the EC50 is 2600 ± 200 nM in the series on HCV replication (None (monotherapy)); 700 ± 100 nM with HCV replication (setting [4]); 100 ± 10 nM in the series on HCV replication (setting [5]); 200 ± 30 nM in the series with HCV replication (setting [6]); 300 ± 30 nM in the series on HCV replication (setting [7]); 300 ± 20 nM in the series on HCV replication (setting [8]). In addition, the EC50 stood at 2.4 ± 0.2 µM in series [1] (Hepatitis C virus, AVA5) and 8.5 ± 0.6 µM in series [2] (Hepatitis C virus). In addition, the EC90 was 9100 ± 500 nM in the series on HCV replication (None (monotherapy)); 1800 ± 200 nM in the series on HCV replication (setting [4]); 400 ± 30 nM with HCV replication (setting [5]); 700 ± 100 nM in the series with HCV replication (setting [6]); 1000 ± 100 nM in the series with HCV replication (setting [7]); 700 ± 100 nM in the series on HCV replication (setting [8]). The EC90 is 2.8 ± 0.3 µM in series [1] (setting [9]) and 9 ± 1 µM in series [2] (Hepatitis C virus, APC103). Moreover, the “Type of Interaction” value in the series with HCV replication (setting [4]), with HCV replication (setting [5]), in the series with HCV replication (setting [6]), with HCV replication (setting [7]) and in the series on HCV replication (setting [8]) was “S” in each case. Moreover, in the series with HCV replication (with interferon, ribavirin, and the STAT-C agents), the “Interaction in combination treatments” value was “interacted favorably”. The figures for the “SI (CC50/EC50)” value in series [1] (AVA5) and in series [2] (APC103) were over 42 and over 35, respectively. For the same compound, the CC50 at 3 days in series [3] (APC103) and in series [3] (AVA5) was over 100 µM in each case.

Consider `O=C(Cn1sc2ccccc2c1=O)Nc1cccc(Oc2ccccc2)c1` [Compound I-8], for which the “SI (CC50/EC50)” value was over 17 in series [1] (AVA5) and over 18 in series [2] (APC103). Besides, the EC90 is 5.6 ± 0.7 µM in series [1] (setting [9]) and 23 ± 1.8 µM in series [2] (Hepatitis C virus, APC103). The EC50 in series [1] (Hepatitis C virus, AVA5) was 5.8 ± 3.7 µM; in series [2] (Hepatitis C virus), 19 ± 2.3 µM. Further, the CC50 at 3 days in series [3] (APC103) and in series [3] (AVA5) was over 100 µM in each case.

On to `C[C@@]1(O)[C@H](O)[C@@H](CO)O[C@H]1n1ccc(N)nc1=O` [2′CmeC, 2′C-methyl cytidine, reference compound], for which the “SI (CC50/EC50)” value is over 150 in series [1] (AVA5) and over 136 in series [2] (APC103). The EC50 in series [1] (AVA5) stood at 2 ± 0.1 µM; in series [2] (APC103, 2-fold depression of intracellular HCV RNA) it was 5.8 ± 0.4 µM. The EC90 in series [1] (AVA5, 10-fold depression of intracellular HCV RNA, read-out: EC90 (μM ± SD)) worked out at 2.2 ± 0.2 µM; in series [2] (APC103) it was 6.4 ± 0.6 µM. In addition, the 50% cytotoxic concentration (CC50) in the series with APC103 cells and in the series with AVA5 cells was over 300 µM each time.
